According to US20050148500A1, “Dopaminergic stimulatory factor” (priority 2001, published 2005):

System: MN9D cells
Experiment: Dopamine content of MN9D cells in monolayer culture after incubation with protein (HPLC)
Assay type: cell-based, mouse
Procedure: […] The MN9D cells on each plate were then collected in 10 ml of CMF, transferred to 15 ml centrifuge tubes and centrifuged at 1000×g for 5 min. The supernatant was removed and 600 μl of 0.5 N perchloric acid was added to the cell pellet which was then sonicated on ice for 10-15 s. The cell extract was centrifuged at 4000×g for 30 min and the supernatant stored at −80° C. for subsequent high pressure liquid chromatography (HPLC) analysis of MN9D cell dopamine content. The pellet was stored at −20° C. for subsequent protein analysis.
A second experiment was then conducted to determine whether this effect was due to a change in the doubling time (24 h) of the MN9D cells with increased cell production or was the result of an increase in cellular dopamine. […] Cells were removed from the plates and cell numbers determined by counting in a hematocytometer. Dopamine content was determined by HPLC analysis. […]
After this period, the MN9D cells on each plate are collected in 10 ml of CMF, transferred to 15 ml centrifuge tubes and centrifuged at 1000×g for 5 min. […] MN9D cell DA content is determined by reverse phase high pressure liquid chromatography with electrochemical detection (HPLC-ED) as previously described (Heller et al., 1993). […]

## insulin growth factor II [IGF-II]
  effect on MN9D DA levels: without effect
